Experimental data published in article PMC12362587, “Untargeted Diversity-Oriented Synthesis for the Discovery of New Antitumor Agents: An Integrated Approach of Inverse Virtual Screening, Bioinformatics, and Omics for Target Deconvolution” (Journal of Medicinal Chemistry, 2025).

Key:
Cathepsin K = molecular target: T1, Cathepsin K (Homo sapiens, UniProt P43235); assay: Cathepsin K Inhibitor Screening Assay Kit (BPS Bioscience); format: biochemical; details: top concentration 30 μM; read-out: EC50 or IC50, Cathepsin K
T1 construct: purchased BPS Bioscience
T1 sequence (P43235 115-329): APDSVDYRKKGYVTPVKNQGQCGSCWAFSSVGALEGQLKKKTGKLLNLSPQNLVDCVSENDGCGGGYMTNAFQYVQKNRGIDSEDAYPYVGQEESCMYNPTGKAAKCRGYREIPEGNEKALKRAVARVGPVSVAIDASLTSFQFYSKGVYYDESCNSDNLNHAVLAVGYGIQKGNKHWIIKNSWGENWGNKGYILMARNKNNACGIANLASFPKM
Method: The assay was performed in a volume of 50 μL in a 96-well black plate. The Cathepsin K inhibitor assay (BPS Bioscience, USA) was designed to measure protease activity by the presence of an internally quenched fluorogenic substrate. Upon cleavage by Cathepsin K (CTSK), the fluorescence of the substrate increases dramatically. For the activity measurement, protease (final concentration, 0.5 ng per reaction), the Fluorogenic Cathepsin K Substrate (final concentration, 70 μM), E-64 (known inhibitor, as positive control) or compounds were incubated for 1 h at room temperature. The compounds were added at different concentrations in the reaction buffer, starting with a final concentration of 30 μM. Buffer with the same amount of DMSO (1%) was used as a negative control. After the incubation time, the fluorescence signals (excitation/emission, 360 nm/460 nm) were read with a PerkinElmer EnSpire multimode plate reader (PerkinElmer, Waltham, MA, USA). Experiments were performed in triplicate. IC50 values were calculated with GraphPad Prism 8.0 software by nonlinear dose–response inhibition regression.

[1] = molecular target: T2, Fibroblast Growth Factor Receptor 1 (FGFR1) (Homo sapiens, UniProt P11362); assay: Kinase Enzymatic Radiometric [10 uM ATP] KinaseProfiler LeadHunter Assay; format: biochemical; details: Eurofins, read-out: EC50 or IC50, FGFR1
T2 construct: Eurofins (contract assay)
T2 sequence (P11362 22-822): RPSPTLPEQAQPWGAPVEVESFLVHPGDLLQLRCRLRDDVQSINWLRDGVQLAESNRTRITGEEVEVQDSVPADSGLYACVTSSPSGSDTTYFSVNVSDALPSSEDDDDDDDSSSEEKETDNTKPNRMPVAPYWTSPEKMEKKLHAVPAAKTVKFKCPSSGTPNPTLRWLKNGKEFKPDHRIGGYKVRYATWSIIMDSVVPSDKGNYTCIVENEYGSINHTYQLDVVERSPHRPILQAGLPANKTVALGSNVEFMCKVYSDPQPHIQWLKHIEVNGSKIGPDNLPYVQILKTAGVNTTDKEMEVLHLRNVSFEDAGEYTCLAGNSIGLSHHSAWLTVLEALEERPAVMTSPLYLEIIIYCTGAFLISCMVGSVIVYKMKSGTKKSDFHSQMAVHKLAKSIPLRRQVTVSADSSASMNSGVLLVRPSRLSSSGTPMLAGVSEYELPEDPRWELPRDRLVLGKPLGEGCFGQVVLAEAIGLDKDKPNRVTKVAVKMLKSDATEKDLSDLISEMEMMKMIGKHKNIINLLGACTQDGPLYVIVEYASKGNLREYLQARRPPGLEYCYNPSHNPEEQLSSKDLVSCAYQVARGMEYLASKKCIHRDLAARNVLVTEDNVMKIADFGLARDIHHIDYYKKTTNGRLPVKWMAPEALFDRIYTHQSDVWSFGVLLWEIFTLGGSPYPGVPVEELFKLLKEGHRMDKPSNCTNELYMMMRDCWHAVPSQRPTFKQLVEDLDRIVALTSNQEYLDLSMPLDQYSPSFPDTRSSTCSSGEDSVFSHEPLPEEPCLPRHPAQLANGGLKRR
Text: (§1) For displacement assays on G-protein coupled receptor 55 (GPR55), Vasopressin V2 receptor (V2R), Adenosine A1 receptor (A1AR), Fibroblast growth factor receptor 1 (FGFR1), Vascular endothelial growth factor receptor 2 (VEGFR2), Platelet-derived growth factor receptor beta (PDGFRB), Vascular endothelial growth factor receptor 1 (VEGFR1), Thromboxane Synthase (TXS) and Phosphodiesterase 10A (PDE10A), we commissioned the Eurofins company which employed its specific experimental methods, accessible at the link: https://www.eurofins.com/.

[2] = molecular target: T3, Platelet-Derived Growth Factor Receptor-Beta (PDGFRB) (Homo sapiens, UniProt P09619); assay: as above; format: biochemical; details: Eurofins, read-out: EC50 or IC50, PDGFRB
T3 construct: Eurofins (contract assay)
T3 sequence (P09619 33-1106): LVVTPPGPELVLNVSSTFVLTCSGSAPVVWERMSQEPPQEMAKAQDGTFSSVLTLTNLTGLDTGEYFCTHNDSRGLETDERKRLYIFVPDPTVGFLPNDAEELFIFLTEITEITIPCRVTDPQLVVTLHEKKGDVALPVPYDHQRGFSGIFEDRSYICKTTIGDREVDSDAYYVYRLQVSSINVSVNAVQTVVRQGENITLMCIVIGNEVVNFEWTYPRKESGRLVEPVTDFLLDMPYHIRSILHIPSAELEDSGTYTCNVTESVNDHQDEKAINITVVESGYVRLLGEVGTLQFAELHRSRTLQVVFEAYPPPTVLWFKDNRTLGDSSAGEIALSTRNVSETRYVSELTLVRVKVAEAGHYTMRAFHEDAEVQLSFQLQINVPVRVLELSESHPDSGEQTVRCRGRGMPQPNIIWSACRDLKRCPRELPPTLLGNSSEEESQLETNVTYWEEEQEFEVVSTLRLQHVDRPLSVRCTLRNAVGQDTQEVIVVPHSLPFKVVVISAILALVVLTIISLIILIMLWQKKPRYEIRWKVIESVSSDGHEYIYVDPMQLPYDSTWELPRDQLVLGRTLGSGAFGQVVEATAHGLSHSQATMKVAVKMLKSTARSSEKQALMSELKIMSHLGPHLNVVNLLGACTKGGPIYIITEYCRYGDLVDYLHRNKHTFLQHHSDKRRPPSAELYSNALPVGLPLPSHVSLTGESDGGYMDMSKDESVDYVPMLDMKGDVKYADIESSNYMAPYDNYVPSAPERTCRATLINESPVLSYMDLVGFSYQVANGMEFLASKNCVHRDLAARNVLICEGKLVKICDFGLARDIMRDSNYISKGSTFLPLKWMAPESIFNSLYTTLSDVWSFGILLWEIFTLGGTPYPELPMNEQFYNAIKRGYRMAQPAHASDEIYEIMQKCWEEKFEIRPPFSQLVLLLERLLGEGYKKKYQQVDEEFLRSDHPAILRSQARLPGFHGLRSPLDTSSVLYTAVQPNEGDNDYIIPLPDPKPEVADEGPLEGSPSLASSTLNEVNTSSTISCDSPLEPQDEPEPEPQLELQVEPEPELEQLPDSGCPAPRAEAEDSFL
Text: as §1

[3] = molecular target: T4, Vascular Endothelial Growth Factor Receptor (VEGFR-2)/KDR (Homo sapiens, UniProt P35968); assay: as above; format: biochemical; details: Eurofins, read-out: EC50 or IC50, VEGFR-2/KDR
T4 construct: Eurofins (contract assay)
T4 sequence (P35968 20-1356): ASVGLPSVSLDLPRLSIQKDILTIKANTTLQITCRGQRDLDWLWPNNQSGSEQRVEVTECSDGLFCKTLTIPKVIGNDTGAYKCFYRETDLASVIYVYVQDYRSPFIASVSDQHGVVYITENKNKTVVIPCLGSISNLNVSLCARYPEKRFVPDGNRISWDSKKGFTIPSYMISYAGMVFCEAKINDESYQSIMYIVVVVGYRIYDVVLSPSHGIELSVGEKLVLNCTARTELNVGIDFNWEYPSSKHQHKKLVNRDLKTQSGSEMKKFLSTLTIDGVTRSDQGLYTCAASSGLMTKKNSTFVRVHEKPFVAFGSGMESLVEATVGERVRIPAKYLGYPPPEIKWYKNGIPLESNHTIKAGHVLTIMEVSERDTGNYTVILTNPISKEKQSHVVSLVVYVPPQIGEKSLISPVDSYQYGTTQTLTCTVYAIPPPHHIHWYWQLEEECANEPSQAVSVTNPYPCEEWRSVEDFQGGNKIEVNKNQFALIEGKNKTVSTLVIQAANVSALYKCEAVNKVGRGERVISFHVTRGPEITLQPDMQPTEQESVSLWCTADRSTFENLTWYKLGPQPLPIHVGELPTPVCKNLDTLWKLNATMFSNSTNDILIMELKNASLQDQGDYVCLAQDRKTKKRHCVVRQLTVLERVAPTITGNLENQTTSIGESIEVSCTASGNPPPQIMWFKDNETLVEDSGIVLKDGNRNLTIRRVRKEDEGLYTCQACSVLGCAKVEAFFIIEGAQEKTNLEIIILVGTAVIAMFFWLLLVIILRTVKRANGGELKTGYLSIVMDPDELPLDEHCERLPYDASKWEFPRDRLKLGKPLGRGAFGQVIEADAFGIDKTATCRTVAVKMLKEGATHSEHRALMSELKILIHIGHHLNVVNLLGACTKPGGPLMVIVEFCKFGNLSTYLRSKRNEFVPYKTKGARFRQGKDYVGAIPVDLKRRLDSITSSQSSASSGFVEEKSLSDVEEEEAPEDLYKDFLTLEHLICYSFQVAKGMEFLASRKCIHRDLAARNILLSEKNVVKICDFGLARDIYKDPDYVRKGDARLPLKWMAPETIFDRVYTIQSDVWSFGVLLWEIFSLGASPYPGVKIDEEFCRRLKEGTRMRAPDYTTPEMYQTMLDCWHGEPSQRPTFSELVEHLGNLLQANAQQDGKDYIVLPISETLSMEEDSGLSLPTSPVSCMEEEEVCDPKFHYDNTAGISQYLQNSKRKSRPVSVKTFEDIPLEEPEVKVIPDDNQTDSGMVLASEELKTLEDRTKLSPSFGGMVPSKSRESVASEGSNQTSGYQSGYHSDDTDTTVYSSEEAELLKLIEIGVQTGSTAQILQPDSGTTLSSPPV
Text: as §1

[4] = molecular target: T5, Vascular Endothelial Growth Factor Receptor-1 Flt-1 (VEGFR1) (FLT1) (Homo sapiens, UniProt P17948); assay: as above; format: biochemical; details: Eurofins, read-out: EC50 or IC50, VEGFR1 (FLT1)
T5 construct: Eurofins (contract assay)
T5 sequence (P17948 27-1338): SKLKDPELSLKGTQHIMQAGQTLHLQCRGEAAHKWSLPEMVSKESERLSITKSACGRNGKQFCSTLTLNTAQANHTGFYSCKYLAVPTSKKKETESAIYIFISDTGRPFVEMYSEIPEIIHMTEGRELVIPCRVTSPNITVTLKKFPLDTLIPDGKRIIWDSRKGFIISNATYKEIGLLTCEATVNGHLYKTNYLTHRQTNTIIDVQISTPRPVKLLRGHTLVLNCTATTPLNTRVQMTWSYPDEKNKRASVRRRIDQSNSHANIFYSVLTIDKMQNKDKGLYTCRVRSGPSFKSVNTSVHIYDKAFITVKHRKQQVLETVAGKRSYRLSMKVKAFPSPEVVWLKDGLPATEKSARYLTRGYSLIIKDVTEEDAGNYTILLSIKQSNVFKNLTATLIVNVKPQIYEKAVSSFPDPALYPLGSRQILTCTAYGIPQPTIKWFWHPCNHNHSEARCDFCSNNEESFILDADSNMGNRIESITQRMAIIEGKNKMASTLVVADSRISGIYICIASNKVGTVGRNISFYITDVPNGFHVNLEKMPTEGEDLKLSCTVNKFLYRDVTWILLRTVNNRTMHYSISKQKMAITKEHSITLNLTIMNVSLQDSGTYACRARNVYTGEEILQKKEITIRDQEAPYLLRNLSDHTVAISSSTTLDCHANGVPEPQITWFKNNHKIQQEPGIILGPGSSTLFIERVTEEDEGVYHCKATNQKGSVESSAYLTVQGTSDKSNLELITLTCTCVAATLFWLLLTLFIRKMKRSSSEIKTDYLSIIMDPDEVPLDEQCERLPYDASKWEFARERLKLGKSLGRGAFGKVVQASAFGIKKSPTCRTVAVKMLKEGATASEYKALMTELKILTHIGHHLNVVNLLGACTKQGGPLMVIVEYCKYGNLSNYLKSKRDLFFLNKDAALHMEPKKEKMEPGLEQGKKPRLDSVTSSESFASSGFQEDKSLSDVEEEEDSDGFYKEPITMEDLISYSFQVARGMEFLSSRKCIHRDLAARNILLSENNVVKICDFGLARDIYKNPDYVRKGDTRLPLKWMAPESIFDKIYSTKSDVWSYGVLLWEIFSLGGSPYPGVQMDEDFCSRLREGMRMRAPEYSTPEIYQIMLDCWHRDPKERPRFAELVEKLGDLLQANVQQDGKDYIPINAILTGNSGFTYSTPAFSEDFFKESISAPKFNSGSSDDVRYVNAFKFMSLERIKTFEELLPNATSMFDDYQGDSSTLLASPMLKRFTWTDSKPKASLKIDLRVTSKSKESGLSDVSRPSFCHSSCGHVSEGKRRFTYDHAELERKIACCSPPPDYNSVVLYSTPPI
Text: as §1

A1 Human Adenosine GPCR = molecular target: T6, A1 Human Adenosine GPCR (Homo sapiens, UniProt P30542); assay: Binding Antagonist Radioligand LeadHunter Assay; details: Eurofins, read-out: EC50 or IC50, A1 Human Adenosine GPCR, antagonist radioligand
T6 construct: Eurofins (contract assay)
T6 sequence (P30542 1-326): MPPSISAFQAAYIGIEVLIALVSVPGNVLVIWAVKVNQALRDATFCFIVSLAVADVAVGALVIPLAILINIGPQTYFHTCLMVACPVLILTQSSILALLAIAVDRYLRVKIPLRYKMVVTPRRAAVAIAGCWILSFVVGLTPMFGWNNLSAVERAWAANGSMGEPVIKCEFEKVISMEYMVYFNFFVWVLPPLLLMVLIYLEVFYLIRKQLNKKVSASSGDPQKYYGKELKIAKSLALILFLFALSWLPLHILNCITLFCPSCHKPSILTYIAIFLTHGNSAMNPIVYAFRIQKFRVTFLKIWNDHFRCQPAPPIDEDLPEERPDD
Text: as §1

[5] = molecular target: T7, G-protein coupled receptor 55 (Homo sapiens, UniProt Q9Y2T6); assay: Cell Based Antagonist Arrestin LeadHunter Assay; details: Eurofins, read-out: EC50 or IC50, G-protein coupled receptor 55, antagonist mode
T7 construct: Eurofins (contract assay)
T7 sequence (Q9Y2T6 whole entry): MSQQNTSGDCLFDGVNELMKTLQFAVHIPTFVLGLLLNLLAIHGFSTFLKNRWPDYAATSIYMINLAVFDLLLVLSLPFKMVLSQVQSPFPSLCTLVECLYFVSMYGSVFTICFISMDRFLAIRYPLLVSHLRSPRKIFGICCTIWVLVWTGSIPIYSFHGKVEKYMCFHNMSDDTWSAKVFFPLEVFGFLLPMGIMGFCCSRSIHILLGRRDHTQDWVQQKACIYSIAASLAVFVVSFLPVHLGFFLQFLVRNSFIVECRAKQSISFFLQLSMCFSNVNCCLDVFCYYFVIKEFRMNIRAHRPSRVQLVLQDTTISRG
Text: as §1

[6] = molecular target: T7, G-protein coupled receptor 55; assay: Cell Based Agonist Arrestin LeadHunter Assay; details: Eurofins, read-out: EC50 or IC50, G-protein coupled receptor 55, agonist mode
Text: as §1

A375 cells [7] = assay: Intracellular ROS measurement (DCFH-DA); format: cell-based, human; details: 10, 5, 2.5 μM for 2–8 h
Method: Cells were treated with compounds 31 and 63 (10, 5, and 2.5 μM) for 2–8 h, and ROS levels were subsequently measured.
The intracellular ROS generation was detected using 10 μM DCFH-DA. This compound is oxidized by ROS to fluorescent […] (DCF) inside the cells. A375 cells were seeded (5 × 10^3 cells/well) in a volume of 100 μL per well in black 96-well OptiPlate (PerkinElmer, USA), allowing them to adhere for 24 h. After, the cells were incubated for 2, 4, and 8 h with compounds (10, 5, and 2.5 μM). Subsequently, the cells were washed twice with PBS and a staining solution containing DCFH-DA in serum-free medium without phenol red was added for 30 min at 37 °C in the dark. The stained cells were washed, and the fluorescence signals (excitation/emission 485 nm/535 nm) were read using a PerkinElmer EnSpire multimode plate reader and expressed as DCFH fluorescence intensity.

A375 cells [8] = assay: Thioflavin T (ThT) protein misfolding assay; format: cell-based, human; details: 24 h, 31: 10, 5, 2.5 μM, 63: 20, 10, 5 μM
Method: Protein misfolding was analyzed using ThT, (Sigma-Aldrich, St. Louis, MO, USA) staining. A375 cells (5 × 10^3 cells/well) were grown in 96-well plates and allowed to adhere for 24 h. Later the medium was replaced, and cells were treated with compounds (31: 10, 5, and 2.5 μM; 63: 20, 10, and 5 μM), for 24 h. After treatments, the culture medium was replaced, cells washed twice with PBS and then suspended in 100 μL ThT (20 μM). After washing, a staining solution containing 20 μM ThT in PBS was added for 30 min at 37 °C in the dark. The stained cells were washed, and representative images were acquired using ZOE Fluorescent Cell Imaging System (Magnification, 20×). Quantitative analyses were performed reading the fluorescence signals (excitation/emission 450 nm/482 nm) using a PerkinElmer EnSpire multimode plate reader (PerkinElmer, Waltham, MA, USA).

Row | SMILES | IC50 (Cathepsin K) [µM] | IC50 [1] [µM] | IC50 [2] [µM] | IC50 [3] [µM] | IC50 [4] [µM] | IC50 (A1 Human Adenosine GPCR) [µM] | IC50 [5] [µM] | EC50 [6] [µM] | intracellular ROS levels (A375 cells [7]) | misfolded protein levels (ThT fluorescence) (A375 cells [8])
1 | CC(C)C[C@H]1C(=O)N(Cc2ccc(C(F)(F)F)cc2)c2ccccc2C(=O)N1Cc1ccc(C(F)(F)F)cc1 [Compound 31, (S)-3-Isobutyl-1,4-bis(4-(trifluoromethyl)benzyl)-3,4-dihydro-1H-benzo[e][1,4]diazepine-2,5-dione] | > 30 | ≥ 30 | ≥ 30 | ≥ 30 | ≥ 30 | ≥ 30 | ≥ 30 | ≥ 30 | significant concentration-dependent increase in ROS levels | maximum accumulation of misfolded proteins even at 10 μM
2 | CC(C)C[C@@H](C(=O)OCc1ccccc1)N1Cc2ccccc2NC1=O [Compound 63, Benzyl (S)-4-Methyl-2-(2-oxo-1,4-dihydroquinazolin-3(2H)-yl)pentanoate] | > 30 | ≥ 30 | ≥ 30 | ≥ 30 | ≥ 30 | ≥ 30 | ≥ 30 | ≥ 30 | delayed and more moderate effect than compound 31 | greatest increase in fluorescence at 20 μM
